Measurements taken from ChEMBL document CHEMBL1152840, “Antileukotrienic phenethylamido derivatives of arylalkanoic acids in the treatment of ulcerative colitis” (Eur J Med Chem, 2009).

Legend:
[1] = Lipophilicity, log K by HPLC method; type: physicochemical
Mus musculus [2] = test: Antiinflammatory activity in mouse assessed as inhibition of arachidonic acid-induced ear lobe hyperemia at 200 mg/kg, po administered 1 hr before arachidonic acid challenge measured after 1 hr relative to untreated control; type: functional
Mus musculus [3] = test: Antiinflammatory activity in mouse assessed as inhibition of arachidonic acid-induced ear lobe edema at 200 mg/kg, po administered 1 hr before arachidonic acid challenge measured after 1 hr relative to untreated control; type: functional
Mus musculus [4] = test: Antiinflammatory activity against dextrane disodium sulfate-induced ulcerative colitis in BALB/c mouse assessed as diseased animal with stool consistency at 250 mg/kg administered 1 hr before dextrane disodium sulfate challenge; type: functional
Mus musculus [5] = test: Antiinflammatory activity against dextrane disodium sulfate-induced ulcerative colitis in BALB/c mouse assessed as diseased animal with large intestine bleeding at 250 mg/kg administered 1 hr before dextrane disodium sulfate challenge; type: functional
[6] = Antileukotrienic activity in rat PMNC assessed as inhibition of Ca2+ ionophore A23187-induced LTB4 production by RIA; type: functional
Mus musculus [7] = test: Antiinflammatory activity against dextrane disodium sulfate-induced ulcerative colitis in BALB/c mouse assessed as diseased animal with rectal prolapse at 250 mg/kg administered 1 hr before dextrane disodium sulfate challenge; type: functional
Mus musculus [8] = test: Antiinflammatory activity against dextrane disodium sulfate-induced ulcerative colitis in BALB/c mouse assessed as diseased animal with small intestine bleeding at 250 mg/kg administered 1 hr before dextrane disodium sulfate challenge; type: functional
Mus musculus [9] = test: Antiinflammatory activity against dextrane disodium sulfate-induced ulcerative colitis in BALB/c mouse assessed as length of colon at 250 mg/kg administered 1 hr before dextrane disodium sulfate challenge; type: functional
Rattus norvegicus = test: Antiinflammatory activity in rat assessed as inhibition of carrageenan-induced edema at 100 mg/kg relative to untreated control; type: functional

SMILES	log K [1]	IC50 [6] [µM]	inhibition in vivo at 200 mg/kg (Mus musculus [2]) [%]	inhibition in vivo at 200 mg/kg (Mus musculus [3]) [%]	Activity (Mus musculus [4]) [%]	Activity (Mus musculus [5]) [%]	Activity (Mus musculus [7]) [%]	Activity (Mus musculus [8]) [%]	Activity (Mus musculus [9]) [cm]	inhibition in vivo at 100 mg/kg (Rattus norvegicus) [%]
CN(CCc1ccccc1)C(=O)Cc1ccc(OCCOc2ccc(C(=O)CCC(=O)O)cc2)cc1	-0.089	20	3.6	16	0	20	0	0	9.2	38
CN(CCc1ccccc1)C(=O)Cc1ccc(OCCOc2ccc(/C=C/C(=O)O)cc2)cc1	0.081	47	3.4	9.4						43
COc1cc(/C=C/C(=O)O)ccc1OCCOc1ccc(CC(=O)N(C)CCc2ccccc2)cc1	-0.061		0	23	40	40	0	0	7.2	10
CN(CCc1ccccc1)C(=O)Cc1ccc(OCCCOc2ccc(/C=C/C(=O)O)cc2)cc1	0.336	8.5	3.7	21						13
COc1cc(/C=C/C(=O)O)ccc1OCCCOc1ccc(CC(=O)N(C)CCc2ccccc2)cc1	0.166		7.1	16						20
COc1cc(/C=C/C(=O)O)ccc1OCCCCOc1ccc(CC(=O)N(C)CCc2ccccc2)cc1	0.274	13	0	23	80	100	0	0	6.8	5.5
CN(CCc1ccccc1)C(=O)Cc1ccc(OCCOc2ccc(CCCC(=O)O)cc2)cc1	0.231	9.5	3.6	12	80	100	0	0	7.1	36
CN(CCc1ccccc1)C(=O)Cc1ccc(OCCCOc2ccc(CCCC(=O)O)cc2)cc1	0.451	12	3.4	13						30
CC(C(=O)O)c1cccc2ccc(OCCCCOc3ccc(CC(=O)NCCc4ccccc4)cc3)cc12 (stereo not given)	0.755	5.6	3.3	26	20	80	0	0	7.5	22
CC(C(=O)O)c1ccc(OCCCOc2ccc(CC(=O)N(C)CCc3ccccc3)cc2)c(Cl)c1 (stereo not given)	0.432	9.1								
CC(C(=O)O)c1cccc2ccc(OCCCOc3ccc(CC(=O)NCCc4ccccc4)cc3)cc12 (stereo not given)	0.617	5.7	0	12						30
COc1cc(CCC(=O)O)ccc1OCCCOc1ccc(CC(=O)N(C)CCc2ccccc2)cc1	0.175		7.4	12						26
COc1cc(CCC(=O)O)ccc1OCCCCOc1ccc(CC(=O)N(C)CCc2ccccc2)cc1	0.267	8.1	11	20	60	100	0	0	7	27
O=C(O)c1cc(/N=N/c2ccc(S(=O)(=O)Nc3ccccn3)cc2)ccc1O [SULFASALAZINE]					53	80	0	0	9.1	

The next lines start with results.

log K [1]	IC50 [6] [µM]	SMILES	inhibition in vivo at 200 mg/kg (Mus musculus [2]) [%]	inhibition in vivo at 200 mg/kg (Mus musculus [3]) [%]	Activity (Mus musculus [4]) [%]	Activity (Mus musculus [5]) [%]	Activity (Mus musculus [7]) [%]	Activity (Mus musculus [8]) [%]	Activity (Mus musculus [9]) [cm]	inhibition in vivo at 100 mg/kg (Rattus norvegicus) [%]
0.636	7.5	CC(CCc1ccc(OCCCOc2ccc(CC(=O)N(C)CCc3ccccc3)cc2)cc1)C(=O)O (stereo not given)	3.7	16	100	60	0	0	7.2	
0.752	10	CC(CCc1ccc(OCCCCOc2ccc(CC(=O)N(C)CCc3ccccc3)cc2)cc1)C(=O)O (stereo not given)	3.7	22	0	60	0	0	9.3	56
0.6	16	CN(CCc1ccccc1)C(=O)Cc1ccc(OCCCCOc2ccc(CCCC(=O)O)cc2)cc1	3.7	22	60	100	0	0	7.2	38
0.38	19	CC(CCc1ccc(OCCOc2ccc(CC(=O)N(C)CCc3ccccc3)cc2)cc1)C(=O)O (stereo not given)	3.7	14						14
0.554	5.6	CC(C(=O)O)c1ccc(OCCCCOc2ccc(CC(=O)N(C)CCc3ccccc3)cc2)c(Cl)c1 (stereo not given)	0	37	0	60	0	0	7.9	44
0.324	11	CN(CCc1ccccc1)C(=O)Cc1ccc(OCCCOc2ccc(CCC(=O)O)cc2)cc1	3.7	23	80	100	0	0	6.8	61
0.344	100	CC(C(=O)O)c1ccc(OCCCOc2ccc(CC(=O)N(C)CCc3ccccc3)cc2)cc1 (stereo not given)	3.7	19						9.2
0.502	8.2	CC(Cc1ccc(OCCCOc2ccc(CC(=O)N(C)CCc3ccccc3)cc2)cc1)C(=O)O (stereo not given)								
0.604	10	CC(Cc1ccc(OCCCCOc2ccc(CC(=O)N(C)CCc3ccccc3)cc2)cc1)C(=O)O (stereo not given)	7.4	10						37
0.451	10	CN(CCc1ccccc1)C(=O)Cc1ccc(OCCCCOc2ccc(CCC(=O)O)cc2)cc1	3.4	13						30
0.458	31	CC(C(=O)O)c1ccc(OCCCCOc2ccc(CC(=O)N(C)CCc3ccccc3)cc2)cc1 (stereo not given)	0	19	100	100	0	20	7.2	63
0.462	8.7	CN(CCc1ccccc1)C(=O)Cc1ccc(OCCCCOc2ccc(/C=C/C(=O)O)cc2)cc1	6.7	22						20
